Reference: US20240041050A1, “CELL PENETRATING PEPTIDE MEDIATED RNA TRANSDUCTION WITHIN INSECT CELLS” (PIONEER HI-BRED INTERNATIONAL, INC., priority 2020, published 2024)
Ends that are not written are not given here.

Tests used:
Sf9 cells = assay: CPP-mediated enhancement of Cy3-dsRNA uptake into insect cells; type: cell-based, Spodoptera frugiperda
Description: (§1) Sample preparation and analysis methods were based on those previously reported (Jafari et al. (201 4) “Serum stability and physicochemical characterization of a novel amphipathic peptide C6M 1 for siRNA delivery”, PLoS One, 9(5), e97797; and Gillet et al. (2017) “Investigating Engineered Ribonucleoprotein Particles to Improve Oral RNAi Delivery in Crop Insect Pests”, Frontiers in Physiology, 8(256), doi: 10.3389/fphys.2017.00256). Reagents are described in Examples 1 and 2. Nanocomplex samples were prepared in one of several ways, depending on type of CPP, RNA, or assay. For insect cell-based assays with CPP-FAM or CPP·mRNA, increasing amounts of CPP (from 25 μM to 100 μM, in 25 μM increments) were used alone or mixed with […] mRNA in water and incubated at 25° C. for 15 minutes prior to cell treatment. […] Final optimal CPP concentration was assessed by amount of fluorescent signal apparent within cells. […] Final optimal molar ratio selected for cell experiments were determined by increase of the apparent size of the Cy3-dsRNA band on a native agarose gel (FIG. 2A and FIG. 2B), and/or appearance and increase in size of the complex peak detected by a Zetasizer Ultra (Malvern Panalytical, Malvern, United Kingdom) DLS instrument (FIG. 2C). […] Final optimal BAPC1 concentration was assessed by amount of fluorescent signal apparent within cells. […]

S2 cells = assay: as above; type: cell-based, Drosophila melanogaster
Description: as §1

[1] = same amount as used in the complexes, no CPP

Substance	fluorescent signal in single-component treated cells (Sf9 cells; [1])	fluorescent signal of YFP or Cy3 in single-component treated cells (S2 cells; [1])	internalization of Cy3-dsRNA versus Cy3-dsRNA alone (Sf9 cells; 5.9 μg BAPC1 and 100 ng Cy3-dsRNA, N/P ratio of 5, 4 hours)	internalization of Cy3-dsRNA versus Cy3-dsRNA alone (S2 cells; 17.6 μg BAPC1 and 100 ng Cy3-dsRNA, N/P ratio of 15)
UCCUUGAUAUCCGGUUCGGUA / AGGAACUAUAGGCCAAGCCAU (Cy3 at each 5' end, chemistry not fully specified; one strand is listed 3' to 5') [Cy3-siRNA]	Low or no fluorescent signal	Low or no fluorescent signal	–	–
bis(FLIVI)-K-KKKK; bis(FLIVIGSII)-K-KKKK (chain 1 FLIVIK(FLIVI)KKKK; chain 2 FLIVIGSIIK(FLIVIGSII)KKKK; also: forms branched peptide capsules) [BAPC1]	–	–	Increased internalization of labeled dsRNA	increased internalization of labeled dsRNA
